Key:
[1] = tested on: Mycobacterium tuberculosis; assay: Antitubercular activity against Mycobacterium tuberculosis H37Rv incubated for 5 days by microtiter plate method; format: functional; settings: 120 h, time 5 day
[2] = Cytotoxicity against african green monkey Vero cells assessed as cell viability at 3.125 ug/ml by MTT assay; format: toxicity, cell-based; settings: chlorocebus sabaeus, at 3.125 µg/mL, read-out: Activity
[3] = Hepatotoxicity in Albino mouse assessed as change in central vein at 50 to 2000 mg/kg, po measured after 14 days; format: toxicity, organism-based; settings: in vivo, 336 h, dose 50-2000 mg/kg, time 14 day
[4] = Renal toxicity in Albino mouse assessed as structural absorbability abnormalities at 50 to 2000 mg/kg, po measured after 14 days; format: organism-based; settings: in vivo, 336 h, dose 50-2000 mg/kg, time 14 day
[5] = Pulmonary toxicity in Albino mouse assessed as change in squamous pneumocytes at 50 to 2000 mg/kg, po measured after 14 days; format: organism-based; settings: in vivo, 336 h, dose 50-2000 mg/kg, time 14 day
[6] = Hepatotoxicity in Albino mouse assessed as change in hepatocytes at 50 to 2000 mg/kg, po measured after 14 days; format: toxicity, organism-based; settings: in vivo, 336 h, dose 50-2000 mg/kg, time 14 day
[7] = Renal toxicity in Albino mouse assessed as change in proximal convoluted tubules at 50 to 2000 mg/kg, po measured after 14 days; format: organism-based; settings: in vivo, 336 h, dose 50-2000 mg/kg, time 14 day
[8] = Renal toxicity in Albino mouse assessed as change in Bowman's capsule at 50 to 2000 mg/kg, po measured after 14 days; format: organism-based; settings: in vivo, 336 h, dose 50-2000 mg/kg, time 14 day
[9] = Renal toxicity in Albino mouse assessed as change in distal convoluted tubules at 50 to 2000 mg/kg, po measured after 14 days; format: organism-based; settings: in vivo, 336 h, dose 50-2000 mg/kg, time 14 day
[10] = Hepatotoxicity in Albino mouse assessed as change in portal tracks at 50 to 2000 mg/kg, po measured after 14 days; format: toxicity, organism-based; settings: in vivo, 336 h, dose 50-2000 mg/kg, time 14 day
[11] = Acute toxicity in Albino mouse assessed as change in eosinophils at 50 to 2000 mg/kg, po measured after 14 days (reference value: 3%); format: organism-based; settings: in vivo, 336 h, dose 50-2000 mg/kg, time 14 day
[12] = Acute toxicity in Albino mouse assessed as change in SGOT count at 50 to 2000 mg/kg, po measured after 14 days (reference value: 42 IU/L); format: organism-based; settings: in vivo, 336 h, dose 50-2000 mg/kg, time 14 day
[13] = Renal toxicity in Albino mouse assessed as change in renal corpuscles at 50 to 2000 mg/kg, po measured after 14 days; format: organism-based; settings: in vivo, 336 h, dose 50-2000 mg/kg, time 14 day
[14] = Pulmonary toxicity in Albino mouse assessed as appearance of goblet cells at 50 to 2000 mg/kg, po measured after 14 days; format: organism-based; settings: in vivo, 336 h, dose 50-2000 mg/kg, time 14 day
[15] = Hepatotoxicity in Albino mouse assessed as change in bile duct at 50 to 2000 mg/kg, po measured after 14 days; format: toxicity, organism-based, Liver; settings: in vivo, 336 h, dose 50-2000 mg/kg, time 14 day
[16] = Acute toxicity in Albino mouse assessed as change in RBC count measured per million cells at 50 to 2000 mg/kg, po measured after 14 days (reference value: 9.15 microL); format: organism-based, Erythrocyte; settings: in vivo, 336 h, dose 50-2000 mg/kg, time 14 day
[17] = Acute toxicity in Albino mouse assessed as change in LDH level at 50 to 2000 mg/kg, po measured after 14 days (reference value: 1052 IU/L); format: organism-based; settings: in vivo, 336 h, dose 50-2000 mg/kg, time 14 day
[18] = Renal toxicity in Albino mouse assessed as change in tubular capillaries at 50 to 2000 mg/kg, po measured after 14 days; format: organism-based; settings: in vivo, 336 h, dose 50-2000 mg/kg, time 14 day
[19] = Cytotoxicity against african green monkey Vero cells assessed as cell viability at 6.25 ug/ml by MTT assay; format: toxicity, cell-based; settings: chlorocebus sabaeus, at 6.25 µg/mL, read-out: Activity
[20] = Renal toxicity in Albino mouse assessed as extravasation of RBC at 50 to 2000 mg/kg, po measured after 14 days; format: organism-based, Erythrocyte; settings: in vivo, 336 h, dose 50-2000 mg/kg, time 14 day
[21] = Cytotoxicity against african green monkey Vero cells assessed as cell viability at 50 ug/ml by MTT assay; format: toxicity, cell-based; settings: chlorocebus sabaeus, at 50 µg/mL, read-out: Activity
[22] = Hepatotoxicity in Albino mouse assessed as change in hepatic artery at 50 to 2000 mg/kg, po measured after 14 days; format: toxicity, organism-based, Liver; settings: in vivo, 336 h, dose 50-2000 mg/kg, time 14 day
[23] = Acute toxicity in po dosed Albino mouse assessed as mortality after 14 days; format: organism-based; settings: in vivo, time 14 day
[24] = Acute toxicity in Albino mouse assessed as change in ALP level at 50 to 2000 mg/kg, po measured after 14 days (reference value: 28 IU/L); format: organism-based; settings: in vivo, 336 h, dose 50-2000 mg/kg, time 14 day
[25] = Pulmonary toxicity in Albino mouse assessed as change in alveoli structure at 50 to 2000 mg/kg, po measured after 14 days; format: organism-based; settings: in vivo, 336 h, dose 50-2000 mg/kg, time 14 day
[26] = Acute toxicity in Albino mouse assessed as change in ESR at 50 to 2000 mg/kg, po measured after 14 days (reference value: 10 millimeter); format: organism-based; settings: in vivo, 336 h, dose 50-2000 mg/kg, time 14 day
[27] = Acute toxicity in Albino mouse assessed as mortality at 300 mg/kg, po after 5 to 8 hrs; format: organism-based; settings: in vivo, time 5-8 hrs
[28] = Acute toxicity in Albino mouse assessed as change in neutrophils at 50 to 2000 mg/kg, po measured after 14 days (reference value: 75%); format: organism-based; settings: in vivo, 336 h, dose 50-2000 mg/kg, time 14 day
[29] = Renal toxicity in Albino mouse assessed as change in renal tubules at 50 to 2000 mg/kg, po measured after 14 days; format: organism-based; settings: in vivo, 336 h, dose 50-2000 mg/kg, time 14 day
[30] = Cytotoxicity against african green monkey Vero cells assessed as cell viability at 100 ug/ml by MTT assay; format: toxicity, cell-based; settings: chlorocebus sabaeus, at 100 µg/mL, read-out: Activity
[31] = Acute toxicity in Albino mouse assessed as change in total leucocyte count at 50 to 2000 mg/kg, po measured after 14 days (reference value: 7400 mm3); format: organism-based; settings: in vivo, 336 h, dose 50-2000 mg/kg, time 14 day
[32] = Cytotoxicity against african green monkey Vero cells assessed as cell viability at 25 ug/ml by MTT assay; format: toxicity, cell-based; settings: chlorocebus sabaeus, at 25 µg/mL, read-out: Activity
[33] = Acute toxicity in Albino mouse assessed as mortality at 50 mg/kg, po after 14 days; format: organism-based; settings: in vivo, 336 h, time 14 day
[34] = Acute toxicity in Albino mouse assessed as mortality at 2000 mg/kg, po after 2 to 4 hrs; format: organism-based; settings: in vivo, time 2-4 hrs
[35] = Hepatotoxicity in Albino mouse assessed as change in portal vein at 50 to 2000 mg/kg, po measured after 14 days; format: toxicity, organism-based; settings: in vivo, 336 h, dose 50-2000 mg/kg, time 14 day
[36] = Pulmonary toxicity in Albino mouse assessed as appearance of cilia at 50 to 2000 mg/kg, po measured after 14 days; format: organism-based; settings: in vivo, 336 h, dose 50-2000 mg/kg, time 14 day
[37] = Acute toxicity in Albino mouse assessed as change in serum urea level at 50 to 2000 mg/kg, po measured after 14 days (reference value: 46 mg/dl); format: organism-based; settings: in vivo, 336 h, dose 50-2000 mg/kg, time 14 day
[38] = Cytotoxicity against african green monkey Vero cells assessed as cell viability at 12.5 ug/ml by MTT assay; format: toxicity, cell-based; settings: chlorocebus sabaeus, at 12.5 µg/mL, read-out: Activity
[39] = Acute toxicity in Albino mouse assessed as change in hemoglobin level at 50 to 2000 mg/kg, po measured after 14 days (reference value: 12.8 g/dl); format: organism-based; settings: in vivo, 336 h, dose 50-2000 mg/kg, time 14 day
[40] = Pulmonary toxicity in Albino mouse assessed as change in alveolar sacs at 50 to 2000 mg/kg, po measured after 14 days; format: organism-based; settings: in vivo, 336 h, dose 50-2000 mg/kg, time 14 day
[41] = Acute toxicity in Albino mouse assessed as change in SGPT count at 50 to 2000 mg/kg, po measured after 14 days (reference value: 52 IU/L); format: organism-based; settings: in vivo, 336 h, dose 50-2000 mg/kg, time 14 day
[42] = Acute toxicity in Albino mouse assessed as change in lymphocytes at 50 to 2000 mg/kg, po measured after 14 days (reference value: 21%); format: organism-based; settings: in vivo, 336 h, dose 50-2000 mg/kg, time 14 day
[43] = Acute toxicity in Albino mouse assessed as change in serum creatine level at 50 to 2000 mg/kg, po measured after 14 days (reference value: 0.9 mg/dl); format: organism-based; settings: in vivo, 336 h, dose 50-2000 mg/kg, time 14 day
[44] = Acute toxicity in Albino mouse assessed as change in monocytes at 50 to 2000 mg/kg, po measured after 14 days (reference value: 1%); format: organism-based; settings: in vivo, 336 h, dose 50-2000 mg/kg, time 14 day
[45] = Pulmonary toxicity in Albino mouse assessed as change in bronchi structure at 50 to 2000 mg/kg, po measured after 14 days; format: organism-based; settings: in vivo, 336 h, dose 50-2000 mg/kg, time 14 day

Molecule O=C1C(Cl)=C(/N=C/c2ccc(Cl)cc2)C(=O)c2ccccc21 has an MIC [1] of 6.25 µg/mL.

Molecule CO[C@H]1/C=C/O[C@@]2(C)Oc3c(C)c(O)c4c(O)c(c(/C=N/N5CCN(C)CC5)c(O)c4c3C2=O)NC(=O)/C(C)=C\C=C\[C@H](C)[C@H](O)[C@@H](C)[C@@H](O)[C@@H](C)[C@H](OC(C)=O)[C@@H]1C [RIFAMPIN] has an MIC [1] of 0.3 µM.

With O=C1C(Cl)=C(N2C(=O)C(Cl)C2c2cccc([N+](=O)[O-])c2)C(=O)c2ccccc21 (stereo not given) the MIC [1] was 12.5 µg/mL.

For NC1=C(Cl)C(=O)c2ccccc2C1=O, the viability at 3.125 ug/ml [2] was 60%, the Activity [3] was “Non-Toxic” and the Activity [4] was “Non-Toxic”. The Activity [5] was “Non-Toxic”, the Activity [6] was “Non-Toxic” and the Activity [7] was “Non-Toxic”. The Activity [8] was “Non-Toxic”, the Activity [9] was “Non-Toxic” and the Activity [10] was “Non-Toxic”. For the same molecule, the Activity [11] was 5%, the Activity [12] was 34 IU/L and the Activity [13] was “Non-Toxic”. The Activity [14] was “Non-Toxic”, the Activity [15] was “Non-Toxic” and the Activity [16] was 4.53 10^6 cells/µL. For the same molecule, the Activity [17] was 1519 IU/L, the Activity [18] was “Non-Toxic” and the viability at 6.25 ug/ml [19] was 55%. The Activity [20] was “Non-Toxic”, the viability at 50 ug/ml [21] was 9.3% and the Activity [22] was “Non-Toxic”. The LD50 at 336 h [23] was 50 mg/kg, the Activity [24] was 40 IU/L and the Activity [25] was “Non-Toxic”. The Activity [26] was 16 millimeter/hr, the Activity [27] was “Toxic” and the Activity [28] was 58%. The Activity [29] was “Non-Toxic”, the MIC [1] was 15.1 µM and the viability at 100 ug/ml [30] was 3.1%. For the same molecule, the Activity [31] was 3900 cells/mm3, the viability at 25 ug/ml [32] was 18% and the Activity [33] was “Non-Toxic”. For the same molecule, the Activity [34] was “Toxic”, the Activity [35] was “Non-Toxic” and the Activity [36] was “Non-Toxic”. For the same molecule, the Activity [37] was 68 mg/dL, the viability at 12.5 ug/ml [38] was 31% and the Activity [39] was 13.6 g/dL. The Activity [40] was “Non-Toxic”, the Activity [41] was 26 IU/L and the Activity [42] was 36%. The Activity [43] was 0.9 mg/dL, the Activity [44] was 1% and the Activity [45] was “Non-Toxic”.

In the case of CCOc1cc(/C=N/C2=C(Cl)C(=O)c3ccccc3C2=O)ccc1O, the MIC [1] is reported as 6.25 µg/mL.

O=C1C(Cl)=C(/N=C/c2ccc([N+](=O)[O-])cc2)C(=O)c2ccccc21 gave an MIC [1] of 12.5 µg/mL.

Source: ChEMBL document CHEMBL5500384, “New synergistic benzoquinone scaffolds as inhibitors of mycobacterial cytochrome bc1 complex to treat multi-drug resistant tuberculosis” (Eur J Med Chem, 2024)
